# Reference: publication PMC9291647, “Discovery of novel mRNA demethylase FTO inhibitors against esophageal cancer” (Journal of Enzyme Inhibition and Medicinal Chemistry, 2022)
# Target: fat mass and obesity-associated protein (FTO) (Homo sapiens, UniProt Q9C0B1)
# Experiment: FTO demethylase assay with ssRNA substrate, nucleosides detected by LC/MS
# Assay type: biochemical
# Chain of fat mass and obesity-associated protein (FTO) (Q9C0B1 whole entry): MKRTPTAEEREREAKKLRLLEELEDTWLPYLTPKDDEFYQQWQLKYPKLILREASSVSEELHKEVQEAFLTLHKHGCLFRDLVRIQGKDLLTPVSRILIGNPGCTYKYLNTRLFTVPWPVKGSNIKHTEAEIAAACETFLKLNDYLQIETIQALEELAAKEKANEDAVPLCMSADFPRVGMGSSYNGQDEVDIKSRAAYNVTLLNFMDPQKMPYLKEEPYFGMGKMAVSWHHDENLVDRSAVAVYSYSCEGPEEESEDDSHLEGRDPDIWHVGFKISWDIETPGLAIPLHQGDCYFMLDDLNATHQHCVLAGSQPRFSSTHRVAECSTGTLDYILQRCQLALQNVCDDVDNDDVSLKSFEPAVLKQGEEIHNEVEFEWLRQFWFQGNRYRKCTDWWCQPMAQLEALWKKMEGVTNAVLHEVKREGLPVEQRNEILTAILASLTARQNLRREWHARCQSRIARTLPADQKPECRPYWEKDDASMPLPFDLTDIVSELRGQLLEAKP
compound,measurement,value
"COc1c(C)cnc(Cn2cc(CNC(=O)c3c(F)c(F)c(F)c(F)c3F)nn2)c1C [C6, 2,3,4,5,6-Pentafluoro-N-((1-((4-methoxy-3,5-dimethylpyridin-2-yl)methyl)-1H-1,2,3-triazol-4-yl)methyl)benzamide]",IC50,0.78 µM
"O=C(NCc1cn(Cc2nc3ccccc3[nH]2)nn1)c1c(F)c(F)c(F)c(F)c1F [C8, N-((1-((1H-benzo[d]imidazol-2-yl)methyl)-1H-1,2,3-triazol-4-yl)methyl)-2,3,4,5,6-pentafluorobenzamide]",IC50,8.67 µM
